How the values were obtained:
Assay type in all cases: in vivo
[1] = tested on: Orchid Thrips (Dichromothrips corbetti); assay: Action on orchid thrips, floral-immersion technique; conditions: adult thrips, 72 hours after treatment, read-out: mortality in comparison with untreated controls
Outline: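 Lab-colony adult thrips, about 20 per arena, were exposed to whole orchid flower petals dipped in compound diluted in 1:1 acetone:water with 0.01% v/v Kinetic HV and then dried. Arenas were held under continuous light at about 28 °C. Live thrips were counted after 3 days and percent mortality recorded at 72 h post-treatment.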

[2] = tested on: yellow fever mosquito (Aedes aegypti); assay: whole plant or invertebrate; conditions: 48 h, larval mortality visually assessed after 2 days, read-out: mortality in comparison with untreated controls
Outline: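 Freshly hatched larvae (5-15 per well) held in 200 μl tap water; compounds formulated in 25% DMSO/water and 2.5 μl sprayed at several concentrations, two replicates. Plates kept 2 days at 28 °C, 80% RH, then larval mortality scored visually.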

[3] = tested on: boll weevil (Anthonomus grandis); assay: Action on boll weevil, eggs on insect diet in 96-well microtiter plates; conditions: 120 h, 800 ppm, egg and larval mortality visually assessed after 5 days, read-out: mortality in comparison with untreated controls
Outline: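 Diet in 96-well plates was infested with 5-10 A. grandis eggs and sprayed with compounds formulated in 75% water/25% DMSO, at several concentrations, in two replicates. Plates were held 5 days at about 25±1 °C and 75±5% RH. Egg and larval mortality was then scored visually.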

[4] = tested on: green peach aphid (Myzus persicae) (mixed life stages); assay: Action on green peach aphid, liquid artificial diet under artificial membrane; conditions: 72 h, 800 ppm, adult aphids on treated aphid diet, 3 days, read-out: mortality in comparison with untreated controls
Text: Example B8: Action on Green Peach Aphid (Myzus persicae) (Mixed Life Stages)
For evaluating control of green peach aphid (Myzus persicae) through systemic means the test unit consisted of 96-well-microtiter plates containing liquid artificial diet under an artificial membrane.
The compounds were formulated using a solution containing 75% v/v water and 25% v/v DMSO. Different concentrations of formulated compounds were pipetted into the aphid diet, using a custom built pipetter, at two replications.
After application, 5-8 adult aphids were placed on the artificial membrane inside the microtiter plate wells. The aphids were then allowed to suck on the treated aphid diet and incubated at about 23±1° C. and about 50±5% relative humidity for 3 days. Aphid mortality and fecundity was then visually assessed.

[5] = tested on: tobacco budworm (Heliothis virescens); assay: Action on tobacco budworm, eggs on insect diet in 96-well microtiter plates; conditions: 120 h, egg and larval mortality visually assessed after 5 days, read-out: mortality in comparison with untreated controls
Outline: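 Compounds in 25% DMSO/water sprayed (10 μl) onto insect diet holding 15–25 H. virescens eggs, two replicates at several concentrations. Held 5 days at about 28±1 °C, 80±5% RH. Egg and larval mortality scored visually.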

[6] = tested on: vetch aphid (Megoura viciae); assay: Action on vetch aphid, broad bean leaf disks in 24-well microtiter plates; conditions: foliar, 120 h, adult aphids on treated leaf disks, 5 days, read-out: mortality in comparison with untreated controls
Description: Example B7: Action on Vetch Aphid (Megoura viciae)
For evaluating control of vetch aphid (Megoura viciae) through contact or systemic means the test unit consisted of 24-well-microtiter plates containing broad bean leaf disks.
The compounds were formulated using a solution containing 75% v/v water and 25% v/v DMSO. Different concentrations of formulated compounds were sprayed onto the leaf disks at 2.5 μl, using a custom built micro atomizer, at two replications.
After application, the leaf disks were air-dried and 5-8 adult aphids placed on the leaf disks inside the microtiter plate wells. The aphids were then allowed to suck on the treated leaf disks and incubated at about 23±1° C. and about 50±5% relative humidity for 5 days. Aphid mortality and fecundity was then visually assessed.

[7] = tested on: Southern Armyworm (Spodoptera eridania), 2nd instar larvae; assay: Action on southern armyworm 2nd instar larvae, sprayed lima bean plants; conditions: 96 h, 4 days after treatment, read-out: mortality in comparison with untreated controls
Outline: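 Lima bean plants (Sieva, 1st true leaf) sprayed electrostatically with compound in 50% acetone/water plus 0.01% nonionic surfactant, dried, then infested with 10–11 larvae in bags. Held at about 25 °C, 20–40% RH; mortality and reduced feeding scored 4 days after treatment versus untreated plants.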

[8] = tested on: Diamond Back Moth (Plutella xylostella); assay: Action on diamond back moth, dipped cabbage leaves; conditions: 3rd instar larvae, 72 hours after treatment, read-out: mortality in comparison with untreated controls
Outline: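 Cabbage leaves dipped in compound in 1:1 water:acetone with 0.01% (vol/vol) surfactant, air-dried, placed on moist filter paper and infested with ten 3rd-instar larvae. Mortality scored 72 hours after treatment; feeding damage rated on a 0-100% scale.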

Cc1ccc(C(C)C)c(N2C(=O)CS/C2=N\N=C\c2ccc3c(ccc4c3ncn4-c3ccc(OC(F)(F)F)cc3)n2)c1 [Compound C-6, (2Z)-3-(2-isopropyl-5-methyl-phenyl)-2-[(E)-[3-[4-(trifluoromethoxy)phenyl]imidazo[4,5-f]quinolin-7-yl]methylenehydrazono]thiazolidin-4-one]
≥ 75%: mortality at 500 ppm [1] | mortality at 800 ppm [2] | mortality at 800 ppm [3] | mortality at 800 ppm [4] | mortality at 800 ppm [5] | mortality at 800 ppm [6] | mortality at 500 ppm [7] | mortality at 500 ppm [8]

— US10106558B2, “Azolobenzazine compounds, compositions comprising these compounds and their use for controlling invertebrate pests” (BASF SE, priority 2015, dated 2018)
